Assay results published in ChEMBL document CHEMBL4613308, “Screen of Unfocused Libraries Identified Compounds with Direct or Synergistic Antibacterial Activity” (ACS Med Chem Lett, 2020).
In brackets after ≈: the same amount, converted by molar mass.

Experiments:
Escherichia coli [1] = assay: Antibacterial activity against Escherichia coli CCUG assessed as bacterial growth inhibition by agar diffusion assay; assay type: functional
Klebsiella pneumoniae [2] = assay: Antibacterial activity against Klebsiella pneumoniae ATCC 13833 assessed as bacterial growth inhibition by agar diffusion assay; assay type: functional
Pseudomonas aeruginosa [3] = assay: Antibacterial activity against Pseudomonas aeruginosa ATCC 27853 assessed as bacterial growth inhibition by agar diffusion assay; assay type: functional
Acinetobacter baumannii [4] = assay: Antibacterial activity against Acinetobacter baumannii ATCC 17978 assessed as bacterial growth inhibition by agar diffusion assay; assay type: functional
Acinetobacter baumannii [5] = assay: Synergistic antibacterial activity against Acinetobacter baumannii ATCC 17978 in presence of 0.5 times MIC of colistin by microdilution broth method; assay type: functional
Escherichia coli [6] = assay: Synergistic antibacterial activity against Escherichia coli CCUG in presence of 0.5 times MIC of colistin by microdilution broth method; assay type: functional
Klebsiella pneumoniae [7] = assay: Synergistic antibacterial activity against Klebsiella pneumoniae ATCC 13833 in presence of 0.5 times MIC of colistin by microdilution broth method; assay type: functional
Acinetobacter baumannii [8] = assay: Potentiation of colistin-induced antibacterial activity against Acinetobacter baumannii ATCC 17978 assessed as fold reduction in colistin MIC by microdilution broth method relative to colistin MIC; assay type: functional
Escherichia coli [9] = assay: Potentiation of colistin-induced antibacterial activity against Escherichia coli CCUG assessed as fold reduction in colistin MIC in by microdilution broth method relative to colistin MIC; assay type: functional
Klebsiella pneumoniae [10] = assay: Potentiation of colistin-induced antibacterial activity against Klebsiella pneumoniae ATCC 13833 assessed as fold reduction in colistin MIC by microdilution broth method relative to colistin MIC; assay type: functional
Acinetobacter baumannii [11] = assay: Synergistic antibacterial activity against Acinetobacter baumannii ATCC 17978 assessed as fractional inhibitory concentration index in presence of colistin by Checkerboard assay; assay type: functional
Klebsiella pneumoniae [12] = assay: Synergistic antibacterial activity against colistin-resistant Klebsiella pneumoniae SI-004Bo clinical isolate in presence of 2 ug/ml colistin by microdilution broth method (reference value: 64 ug/ml); assay type: functional
Klebsiella pneumoniae [13] = assay: Synergistic antibacterial activity against colistin-resistant Klebsiella pneumoniae SI-081R clinical isolate in presence of 2 ug/ml colistin by microdilution broth method (reference value: 256 ug/ml); assay type: functional
Acinetobacter baumannii [14] = assay: Synergistic antibacterial activity against multidrug-resistant Acinetobacter baumannii N50 in presence of 2 ug/ml colistin by microdilution broth method; assay type: functional
HeLa = assay: Cytotoxicity against human HeLa cells assessed as reduction in cell viability assay by CellTox-Green assay; assay type: cell-based
Bacillus spizizenii = assay: Antibacterial activity against Bacillus subtilis ATCC 6633 assessed as bacterial growth inhibition by agar diffusion assay; assay type: functional
Enterococcus faecalis = assay: Antibacterial activity against Enterococcus faecalis ATCC 29212 assessed as bacterial growth inhibition by agar diffusion assay; assay type: functional
Staphylococcus aureus = assay: Antibacterial activity against Staphylococcus aureus ATCC 25923 assessed as bacterial growth inhibition by agar diffusion assay; assay type: functional
Streptococcus pyogenes = assay: Antibacterial activity against Streptococcus pyogenes ATCC 12344 assessed as bacterial growth inhibition by agar diffusion assay; assay type: functional
Enterobacter cloacae [15] = assay: Antibacterial activity against multidrug-resistant Enterobacter cloacae VA 417/02 clinical isolate assessed as bacterial growth inhibition by agar diffusion assay; assay type: functional
Enterobacter cloacae [16] = assay: Antibacterial activity against multidrug-resistant Enterobacter cloacae Z19 clinical isolate assessed as bacterial growth inhibition by agar diffusion assay; assay type: functional
Escherichia coli [17] = assay: Antibacterial activity against multidrug-resistant Escherichia coli Z25 clinical isolate assessed as bacterial growth inhibition by agar diffusion assay; assay type: functional
Pseudomonas aeruginosa [18] = assay: Antibacterial activity against multidrug-resistant Pseudomonas aeruginosa VR-143/97 clinical isolate assessed as bacterial growth inhibition by agar diffusion assay; assay type: functional
Acinetobacter baumannii [19] = assay: Antibacterial activity against Acinetobacter baumannii AC-54/97 clinical isolate assessed as bacterial growth inhibition by agar diffusion assay; assay type: functional

| Structure (SMILES) | MIC (Escherichia coli [1]) [µg/mL] | MIC (Klebsiella pneumoniae [2]) [µg/mL] | MIC (Pseudomonas aeruginosa [3]) [µg/mL] | MIC (Acinetobacter baumannii [4]) [µg/mL] | MIC (Acinetobacter baumannii [5]) [µg/mL] | MIC (Escherichia coli [6]) [µg/mL] | MIC (Klebsiella pneumoniae [7]) [µg/mL] | log2FC (Acinetobacter baumannii [8]) | log2FC (Escherichia coli [9]) | log2FC (Klebsiella pneumoniae [10]) | MIC (Bacillus spizizenii) [µg/mL] | MIC (Enterococcus faecalis) [µg/mL] | MIC (Staphylococcus aureus) [µg/mL] | MIC (Streptococcus pyogenes) [µg/mL] | MIC (Enterobacter cloacae [15]) [µg/mL] | MIC (Enterobacter cloacae [16]) [µg/mL] | MIC (Escherichia coli [17]) [µg/mL] | MIC (Pseudomonas aeruginosa [18]) [µg/mL] | MIC (Acinetobacter baumannii [19]) [µg/mL] | further results |
| --- | --- | --- | --- | --- | --- | --- | --- | --- | --- | --- | --- | --- | --- | --- | --- | --- | --- | --- | --- | --- |
| CC(C)c1ccc2c(c1)c(O)c(C(C)C)c(=O)n2CC(C)(C)C | > 512 | > 512 | > 512 | > 512 | 32 | 32 | 64 | 4 | 4 | 3 |  |  |  |  |  |  |  |  |  |  |
| O=C(NCc1ccc2c(c1)OCO2)c1cnn(-c2ccccc2)c1-n1cccc1 | > 512 | > 512 | > 512 | > 512 | 32 | 64 | 64 | 4 | 3 | 3 |  |  |  |  |  |  |  |  |  | fractional inhibitory concentration index (FICI) (Acinetobacter baumannii [11]): 0.38; MIC (Klebsiella pneumoniae [12]): > 64 µg/mL; MIC (Klebsiella pneumoniae [13]): > 64 µg/mL; MIC (Acinetobacter baumannii [14]): 32 µg/mL; IC50 (HeLa): > 60 µg/mL |
| Cc1c(C(=O)N(C)CCN(C)C)nn(-c2ccc(Cl)cc2)c1-n1cccc1 | > 512 | > 512 | > 512 | > 512 | 16 | 64 | 32 | 5 | 3 | 4 |  |  |  |  |  |  |  |  |  |  |
| CCCCCCc1ccc(O)cc1OCCCCCC(=O)NCCO | > 512 | > 512 | > 512 | > 512 | 8 |  |  | 6 |  |  |  |  |  |  |  |  |  |  |  |  |
| CCCCCCc1ccc(O)cc1OCCCCCCCCCCC(=O)NCCO | > 512 | > 512 | > 512 | > 512 | 16 | 4 | 8 | 5 | 7 | 6 |  |  |  |  |  |  |  |  |  |  |
| CC(C)(C)n1cc(C(=O)O)c(=O)c2cc(F)c(-c3cccnc3)cc21 | 2 (≈ 5.88 µM) | 0.25 (≈ 0.735 µM) | 4 (≈ 11.8 µM) | 0.5 (≈ 1.47 µM) |  |  |  |  |  |  | ≤ 0.12 | 0.5 (≈ 1.47 µM) | ≤ 0.12 | ≤ 0.12 | 0.5 (≈ 1.47 µM) | 256 (≈ 752 µM) | 256 (≈ 752 µM) | 64 (≈ 188 µM) | 64 (≈ 188 µM) |  |
| CCCCCc1cc(OC)cc(OCCCCCCCC(=O)NCCO)c1 | > 512 | > 512 | > 512 | > 512 | 4 | 4 | 8 | 7 | 7 | 6 |  |  |  |  |  |  |  |  |  | MIC (Klebsiella pneumoniae [12]): > 64 µg/mL; MIC (Klebsiella pneumoniae [13]): 18 µg/mL; MIC (Acinetobacter baumannii [14]): 8 µg/mL; IC50 (HeLa): > 20 µg/mL |
| CCOC(=O)c1cn(CC)c2cc(N)c(F)cc2c1=O | 32 (≈ 115 µM) | 128 (≈ 460 µM) | > 256 | 256 (≈ 920 µM) |  |  |  |  |  |  | 32 (≈ 115 µM) | 256 (≈ 920 µM) | 256 (≈ 920 µM) | 64 (≈ 230 µM) | > 256 | > 256 | > 256 | > 256 | > 256 |  |
| CCOC(=O)c1cn2c3c(cccc3c1=O)OCC2CC (centres undefined) | > 256 | 128 (≈ 446 µM) | > 256 | 256 (≈ 891 µM) |  |  |  |  |  |  | 128 (≈ 446 µM) | 256 (≈ 891 µM) | > 256 | > 256 | > 256 | > 256 | > 256 | > 256 | > 256 |  |
| CCCCCc1cc(O)cc(OCCCCCCCCCCC(=O)NC(CO)CO)c1 | > 512 | > 512 | > 512 | > 512 | 4 | 8 | 8 | 7 | 6 | 6 |  |  |  |  |  |  |  |  |  |  |
